Structures are written as SMILES.

The source of these data is patent publication US20260284018A1, “DUAL INHIBITORS OF DYRK1A AND 5-HT2 FOR TREATING A BRAIN DISORDER” (THE REGENTS OF THE UNIVERSITY OF CALIFORNIA, priority 2023, published 2026).

In test [1] the target is T1, IGF1R (Homo sapiens, UniProt P08069).
T1 construct: purchased Eurofins DiscoverX
As to the kind of experiment: KINOMEscan scanEDGE. The format is binding. The settings on record: read-out: Percent Control. As for the experimental part: (§1) Kinome Scan. Compound HTW_A_8 fumarate was screened against 97 kinases at a single concentration of 10 μM at Eurofins DiscoverX using their KINOMEscan™ scanEDGE assay. The results are reported as the % activity relative to DMSO control, where lower values indicate higher affinity. See Table 1 for the full kinome profile.

A further test has as its target T2, PDGFRA (Homo sapiens, UniProt P16234).
T2 construct: purchased Eurofins DiscoverX (KINOMEscan scanEDGE service)
Put plainly: KINOMEscan scanEDGE. The format is binding. Particulars: read-out: Percent Control. As for the experimental part:
as §1

The target in test [2] is T3, JAK2(JH1domain-catalytic) (Homo sapiens, UniProt O60674).
T3 construct: JAK2(JH1domain-catalytic); purchased Eurofins DiscoverX
Put plainly: KINOMEscan scanEDGE. The format is binding. Particulars: read-out: Percent Control. The procedure: as §1

For test [3], the target named is T4, ULK2 (Homo sapiens, UniProt Q8IYT8).
T4 construct: purchased Eurofins DiscoverX KINOMEscan scanEDGE
Put plainly: KINOMEscan scanEDGE. In kind it is binding. The settings on record: read-out: Percent Control. As for the experimental part: as §1

Another test deals with T5, DCAMKL1 (Homo sapiens, UniProt O15075).
T5 construct: purchased Eurofins DiscoverX
As to the kind of experiment: KINOMEscan scanEDGE. The settings on record: read-out: Percent Control. In kind it is binding. The procedure:
as §1

The target of a further test is T6, ZAP70 (Homo sapiens, UniProt P43403).
T6 construct: purchased Eurofins DiscoverX KINOMEscan scanEDGE
Put plainly: KINOMEscan scanEDGE. In kind it is binding. The settings on record: read-out: Percent Control. The procedure:
as §1

The target in a further test is T7, PLK4 (Homo sapiens, UniProt O00444).
T7 construct: purchased Eurofins DiscoverX KINOMEscan scanEDGE
Particulars: 10 μM; cited from earlier work.

Test [4] concerns the target T3, JAK2(JH1domain-catalytic). Particulars: 10 μM; cited from earlier work.
The target in another test is T8, PDGFRB (Homo sapiens, UniProt P09619).
T8 construct: purchased Eurofins DiscoverX (KINOMEscan scanEDGE service)
Particulars: 10 μM; cited from earlier work.

A further test concerns the target T9, ADCK3 (Homo sapiens, UniProt Q8NI60).
T9 construct: purchased Eurofins DiscoverX
Particulars: 10 μM; cited from earlier work.

The next test has as its target T10, ABL1-phosphorylated (Homo sapiens, UniProt P00519).
T10 construct: purchased Eurofins DiscoverX
Particulars: 10 μM; cited from earlier work.

In test [5] the target is T4, ULK2. Particulars: 10 μM; cited from earlier work.
A further test deals with T11, ERBB2 (Homo sapiens, UniProt P04626).
T11 construct: purchased Eurofins DiscoverX
The settings on record: 10 μM; cited from earlier work.

Another test deals with T12, PIM1 (Homo sapiens, UniProt P11309).
T12 construct: purchased Eurofins DiscoverX (KINOMEscan scanEDGE service)
The settings on record: 10 μM; cited from earlier work.

The target of the next test is T13, PIK3C2B (Homo sapiens, UniProt O00750).
T13 construct: purchased Eurofins DiscoverX (KINOMEscan scanEDGE service)
The settings on record: 10 μM; cited from earlier work.

For a further test, the target named is T14, ROCK2 (Homo sapiens, UniProt O75116).
T14 construct: purchased Eurofins DiscoverX KINOMEscan scanEDGE
The settings on record: 10 μM; cited from earlier work.

Test [6] has as its target T1, IGF1R. The settings on record: 10 μM; cited from earlier work.
A further test deals with T15, RET (Homo sapiens, UniProt P07949).
T15 construct: purchased Eurofins DiscoverX KINOMEscan scanEDGE
Particulars: 10 μM; cited from earlier work.

A further test addresses T16, PAK1 (Homo sapiens, UniProt Q13153).
T16 construct: purchased Eurofins DiscoverX (KINOMEscan scanEDGE service)
Particulars: 10 μM; cited from earlier work.

The target in the next test is T17, ALK (Homo sapiens, UniProt Q9UM73).
T17 construct: purchased Eurofins DiscoverX
Particulars: 10 μM; cited from earlier work.

For a further test, the target named is T18, MARK3 (Homo sapiens, UniProt P27448).
T18 construct: purchased Eurofins DiscoverX (KINOMEscan scanEDGE service)
The settings on record: 10 μM; cited from earlier work.

For the next test, the target named is T19, CSNK1G2 (Homo sapiens, UniProt P78368).
T19 construct: purchased Eurofins DiscoverX
The settings on record: 10 μM; cited from earlier work.

A further test addresses T20, FLT3 (Homo sapiens, UniProt P36888).
T20 construct: purchased Eurofins DiscoverX
Particulars: 10 μM; cited from earlier work.

A further test concerns the target T21, PAK4 (Homo sapiens, UniProt O96013).
T21 construct: purchased Eurofins DiscoverX (KINOMEscan scanEDGE service)
Particulars: 10 μM; cited from earlier work.

The target in a further test is T22, KIT(V559D, T670I) (Homo sapiens, UniProt P10721, T670I/V559D).
T22 construct: purchased Eurofins DiscoverX
Particulars: 10 μM; cited from earlier work.

The next test addresses T23, PLK3 (Homo sapiens, UniProt Q9H4B4).
T23 construct: purchased Eurofins DiscoverX KINOMEscan scanEDGE
The settings on record: 10 μM; cited from earlier work.

For another test, the target named is T24, PCTK1 (Homo sapiens, UniProt Q00536).
T24 construct: purchased Eurofins DiscoverX (KINOMEscan scanEDGE service)
The settings on record: 10 μM; cited from earlier work.

A further test deals with T25, TGFBR1 (Homo sapiens, UniProt P36897).
T25 construct: purchased Eurofins DiscoverX KINOMEscan scanEDGE
The settings on record: 10 μM; cited from earlier work.

A further test deals with T26, CHEK1 (Homo sapiens, UniProt O14757).
T26 construct: purchased Eurofins DiscoverX
The settings on record: 10 μM; cited from earlier work.

A further test concerns the target T27, AURKB (Homo sapiens, UniProt Q96GD4).
T27 construct: purchased Eurofins DiscoverX
Particulars: 10 μM; cited from earlier work.

In the next test the target is T28, ACVR1B (Homo sapiens, UniProt P36896).
T28 construct: purchased Eurofins DiscoverX
Particulars: 10 μM; cited from earlier work.

The target of test [7] is T29, ABL1(E255K)-phosphorylated (Homo sapiens, UniProt P00519, E255K).
T29 construct: purchased Eurofins DiscoverX
The settings on record: 10 μM; cited from earlier work.

The next test concerns the target T30, GSK3B (Homo sapiens, UniProt P49841).
T30 construct: purchased Eurofins DiscoverX
The settings on record: 10 μM; cited from earlier work.

For another test, the target named is T31, PDPK1 (Homo sapiens, UniProt O15530).
T31 construct: purchased Eurofins DiscoverX (KINOMEscan scanEDGE service)
The settings on record: 10 μM; cited from earlier work.

The next test concerns the target T32, PIM3 (Homo sapiens, UniProt Q86V86).
T32 construct: purchased Eurofins DiscoverX (KINOMEscan scanEDGE service)
The settings on record: 10 μM; cited from earlier work.

A further test addresses T33, MLK1 (Homo sapiens, UniProt P80192).
T33 construct: purchased Eurofins DiscoverX (KINOMEscan scanEDGE service)
Particulars: 10 μM; cited from earlier work.

In the next test the target is T34, TSSK1B (Homo sapiens, UniProt Q9BXA7).
T34 construct: purchased Eurofins DiscoverX KINOMEscan scanEDGE
Particulars: 10 μM; cited from earlier work.

A further test concerns the target T35, CSF1R (Homo sapiens, UniProt P07333).
T35 construct: purchased Eurofins DiscoverX
Particulars: 10 μM; cited from earlier work.

T3 sequence (O60674 849-1124 limits assumed): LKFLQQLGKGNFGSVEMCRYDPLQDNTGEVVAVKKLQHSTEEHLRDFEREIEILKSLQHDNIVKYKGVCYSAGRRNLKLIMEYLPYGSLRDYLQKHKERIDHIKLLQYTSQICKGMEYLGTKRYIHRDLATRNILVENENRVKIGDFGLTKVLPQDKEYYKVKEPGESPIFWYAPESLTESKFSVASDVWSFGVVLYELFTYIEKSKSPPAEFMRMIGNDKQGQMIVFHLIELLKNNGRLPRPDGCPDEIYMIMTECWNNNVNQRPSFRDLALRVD
T1 sequence (P08069 31-1367): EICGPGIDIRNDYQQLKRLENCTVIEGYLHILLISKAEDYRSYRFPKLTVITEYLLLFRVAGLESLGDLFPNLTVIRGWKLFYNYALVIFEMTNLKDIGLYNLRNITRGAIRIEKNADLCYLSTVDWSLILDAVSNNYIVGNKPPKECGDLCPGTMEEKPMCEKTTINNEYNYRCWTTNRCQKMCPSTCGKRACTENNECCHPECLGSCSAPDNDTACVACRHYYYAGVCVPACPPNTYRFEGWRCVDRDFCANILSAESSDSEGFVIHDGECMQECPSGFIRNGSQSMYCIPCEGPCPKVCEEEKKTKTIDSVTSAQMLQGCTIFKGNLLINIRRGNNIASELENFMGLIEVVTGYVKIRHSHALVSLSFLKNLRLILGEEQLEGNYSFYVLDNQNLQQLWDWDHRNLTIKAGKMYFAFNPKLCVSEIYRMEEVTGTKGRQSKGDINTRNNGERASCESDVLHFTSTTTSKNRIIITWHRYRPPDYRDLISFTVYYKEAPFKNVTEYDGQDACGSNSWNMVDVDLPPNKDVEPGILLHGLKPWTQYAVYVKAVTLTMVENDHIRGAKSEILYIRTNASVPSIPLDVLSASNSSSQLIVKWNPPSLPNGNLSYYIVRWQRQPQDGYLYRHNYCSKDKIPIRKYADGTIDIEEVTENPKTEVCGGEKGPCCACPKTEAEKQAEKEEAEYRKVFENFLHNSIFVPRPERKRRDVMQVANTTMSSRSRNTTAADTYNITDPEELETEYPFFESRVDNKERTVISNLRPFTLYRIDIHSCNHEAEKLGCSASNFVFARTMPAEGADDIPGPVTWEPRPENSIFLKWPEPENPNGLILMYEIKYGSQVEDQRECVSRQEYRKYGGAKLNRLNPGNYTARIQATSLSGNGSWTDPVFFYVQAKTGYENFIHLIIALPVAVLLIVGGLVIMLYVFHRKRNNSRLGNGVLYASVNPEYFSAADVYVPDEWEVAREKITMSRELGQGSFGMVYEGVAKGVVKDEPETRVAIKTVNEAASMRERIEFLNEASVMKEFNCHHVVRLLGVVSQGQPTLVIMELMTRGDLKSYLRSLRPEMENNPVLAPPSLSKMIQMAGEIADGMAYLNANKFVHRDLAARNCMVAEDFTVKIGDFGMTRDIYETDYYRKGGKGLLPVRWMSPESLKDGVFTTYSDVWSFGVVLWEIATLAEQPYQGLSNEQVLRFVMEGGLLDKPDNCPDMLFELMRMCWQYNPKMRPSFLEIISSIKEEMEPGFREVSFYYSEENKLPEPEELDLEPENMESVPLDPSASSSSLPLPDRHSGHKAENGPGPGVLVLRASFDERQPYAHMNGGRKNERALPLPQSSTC
T4 sequence (Q8IYT8 whole entry): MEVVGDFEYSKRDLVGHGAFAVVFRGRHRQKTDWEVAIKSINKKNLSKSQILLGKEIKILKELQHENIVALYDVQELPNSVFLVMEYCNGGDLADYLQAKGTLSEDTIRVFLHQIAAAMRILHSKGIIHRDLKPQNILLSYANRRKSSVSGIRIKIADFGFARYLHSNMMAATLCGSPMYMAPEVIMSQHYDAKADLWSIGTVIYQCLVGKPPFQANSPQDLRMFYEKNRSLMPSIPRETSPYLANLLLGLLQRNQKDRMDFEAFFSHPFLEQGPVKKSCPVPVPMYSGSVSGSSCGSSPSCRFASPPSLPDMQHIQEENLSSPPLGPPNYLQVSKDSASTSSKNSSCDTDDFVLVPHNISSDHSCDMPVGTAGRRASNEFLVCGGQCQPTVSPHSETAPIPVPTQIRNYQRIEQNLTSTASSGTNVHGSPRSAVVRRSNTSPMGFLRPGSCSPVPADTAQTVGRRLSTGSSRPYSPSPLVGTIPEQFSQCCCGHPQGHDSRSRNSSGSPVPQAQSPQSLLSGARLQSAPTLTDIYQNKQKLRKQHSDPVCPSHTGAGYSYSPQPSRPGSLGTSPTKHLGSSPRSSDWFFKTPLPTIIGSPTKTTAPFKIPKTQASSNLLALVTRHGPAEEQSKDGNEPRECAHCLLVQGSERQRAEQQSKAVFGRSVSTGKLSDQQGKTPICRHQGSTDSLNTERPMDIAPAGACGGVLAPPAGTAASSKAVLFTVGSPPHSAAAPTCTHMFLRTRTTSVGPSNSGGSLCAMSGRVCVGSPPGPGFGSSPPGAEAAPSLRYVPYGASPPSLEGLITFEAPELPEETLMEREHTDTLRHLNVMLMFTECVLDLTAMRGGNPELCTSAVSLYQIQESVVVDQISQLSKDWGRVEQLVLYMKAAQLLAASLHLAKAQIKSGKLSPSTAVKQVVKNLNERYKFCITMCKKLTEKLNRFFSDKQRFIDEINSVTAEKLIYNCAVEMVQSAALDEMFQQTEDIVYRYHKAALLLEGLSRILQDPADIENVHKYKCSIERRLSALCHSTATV
T33 sequence (P80192 whole entry): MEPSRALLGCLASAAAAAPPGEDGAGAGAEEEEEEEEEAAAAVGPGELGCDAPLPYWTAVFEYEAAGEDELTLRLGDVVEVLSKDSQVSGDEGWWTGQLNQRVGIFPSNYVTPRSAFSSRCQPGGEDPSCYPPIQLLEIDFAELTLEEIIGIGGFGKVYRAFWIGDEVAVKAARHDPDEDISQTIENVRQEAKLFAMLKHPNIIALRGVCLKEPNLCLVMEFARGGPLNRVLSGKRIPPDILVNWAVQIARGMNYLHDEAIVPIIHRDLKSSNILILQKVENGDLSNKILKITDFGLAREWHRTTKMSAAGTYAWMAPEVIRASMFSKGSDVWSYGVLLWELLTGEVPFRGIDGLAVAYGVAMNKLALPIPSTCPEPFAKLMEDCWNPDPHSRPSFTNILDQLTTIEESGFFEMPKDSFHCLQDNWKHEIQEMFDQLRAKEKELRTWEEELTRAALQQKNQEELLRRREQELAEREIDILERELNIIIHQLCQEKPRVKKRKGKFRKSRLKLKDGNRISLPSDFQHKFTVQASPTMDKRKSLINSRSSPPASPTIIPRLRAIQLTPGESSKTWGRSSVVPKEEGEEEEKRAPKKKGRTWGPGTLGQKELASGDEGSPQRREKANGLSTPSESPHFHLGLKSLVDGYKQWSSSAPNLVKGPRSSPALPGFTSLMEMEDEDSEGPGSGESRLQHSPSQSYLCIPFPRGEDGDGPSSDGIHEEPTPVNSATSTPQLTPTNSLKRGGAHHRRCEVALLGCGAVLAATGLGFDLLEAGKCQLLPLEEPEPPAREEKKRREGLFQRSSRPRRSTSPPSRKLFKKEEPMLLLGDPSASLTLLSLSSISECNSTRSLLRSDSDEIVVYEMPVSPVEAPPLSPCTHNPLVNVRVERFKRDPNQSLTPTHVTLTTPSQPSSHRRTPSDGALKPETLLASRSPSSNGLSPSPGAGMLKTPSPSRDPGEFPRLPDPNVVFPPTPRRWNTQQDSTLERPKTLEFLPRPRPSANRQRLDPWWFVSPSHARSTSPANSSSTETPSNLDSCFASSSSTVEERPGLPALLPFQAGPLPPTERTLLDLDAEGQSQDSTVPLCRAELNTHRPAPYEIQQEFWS
T27 sequence (Q96GD4 whole entry): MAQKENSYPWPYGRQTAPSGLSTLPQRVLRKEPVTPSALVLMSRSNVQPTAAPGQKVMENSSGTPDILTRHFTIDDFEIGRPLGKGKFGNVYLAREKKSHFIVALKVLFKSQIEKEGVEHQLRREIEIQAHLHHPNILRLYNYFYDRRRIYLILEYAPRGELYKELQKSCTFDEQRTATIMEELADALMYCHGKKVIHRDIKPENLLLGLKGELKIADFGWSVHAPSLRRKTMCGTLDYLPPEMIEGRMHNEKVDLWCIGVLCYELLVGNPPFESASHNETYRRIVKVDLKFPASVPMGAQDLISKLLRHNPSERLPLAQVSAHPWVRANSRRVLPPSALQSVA
T34 sequence (Q9BXA7 whole entry): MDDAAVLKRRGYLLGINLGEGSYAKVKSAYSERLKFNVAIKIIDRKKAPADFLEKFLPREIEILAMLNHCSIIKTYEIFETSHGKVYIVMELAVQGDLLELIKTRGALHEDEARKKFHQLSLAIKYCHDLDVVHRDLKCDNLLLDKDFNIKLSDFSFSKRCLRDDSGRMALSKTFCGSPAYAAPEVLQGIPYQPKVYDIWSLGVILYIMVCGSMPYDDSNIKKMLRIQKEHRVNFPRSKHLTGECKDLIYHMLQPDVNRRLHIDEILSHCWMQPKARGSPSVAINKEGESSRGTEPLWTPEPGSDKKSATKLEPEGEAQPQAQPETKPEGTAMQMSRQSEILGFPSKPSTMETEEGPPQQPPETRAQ
T25 sequence (P36897 34-503): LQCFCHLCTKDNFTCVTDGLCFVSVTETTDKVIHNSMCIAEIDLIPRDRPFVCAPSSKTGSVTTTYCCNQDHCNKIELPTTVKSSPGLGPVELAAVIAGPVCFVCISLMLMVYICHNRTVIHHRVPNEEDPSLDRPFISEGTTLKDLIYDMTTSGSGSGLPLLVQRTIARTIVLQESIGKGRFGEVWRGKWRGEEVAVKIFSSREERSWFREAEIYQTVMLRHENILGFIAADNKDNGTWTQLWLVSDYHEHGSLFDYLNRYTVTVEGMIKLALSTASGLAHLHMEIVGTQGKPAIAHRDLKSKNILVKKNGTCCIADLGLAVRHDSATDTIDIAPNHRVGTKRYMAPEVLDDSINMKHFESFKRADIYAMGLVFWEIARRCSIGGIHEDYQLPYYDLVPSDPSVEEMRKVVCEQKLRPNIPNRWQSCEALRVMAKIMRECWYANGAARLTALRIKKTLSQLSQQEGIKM

With `COc1ccc2c3ccnc(C)c3n(CCN(C)C)c2c1.O=C(O)/C=C/C(=O)O` [HTW_A_8 fumarate, 2-(7-methoxy-1-methyl-9H-pyrido[3,4-b]indol-9-yl)-N,N-dimethylethan-1-amine Fumarate Salt (2:3)], the remaining binding at 10 µM at IGF1R [1] stood at 85%; on PDGFRA, 100%; in test [2], 100%; at ULK2 [3], 100%; at DCAMKL1, 98%; at ZAP70, 93%.
Consider `COc1ccc2c(c1)[nH]c1c(C)nccc12` [Harmine, harmine], for which the “Percent Control” value was 77% on PLK4; 92% in test [4]; 84% at PDGFRB; 88% on ADCK3; 100% on ABL1-phosphorylated; 89% at ULK2 [5]. The “Percent Control” value is on record as 85% at ERBB2; 45% at PIM1; 97% at PIK3C2B; 43% on ROCK2; 100% on IGF1R [6]; 91% on RET. Also, the “Percent Control” value is 73% on PAK1; 92% on ALK; 91% at MARK3; 19% at CSNK1G2; 85% at FLT3; 76% at PAK4. Besides, the “Percent Control” value on KIT(V559D, T670I) is listed as 92%; at PLK3, 75%; at PCTK1, 100%; at TGFBR1, 91%; at CHEK1, 96%; at AURKB it was 80%. Besides, the “Percent Control” value is 91% at ACVR1B; 74% in test [7]; 71% on GSK3B; 100% on PDPK1; 43% at PIM3; 100% at MLK1. The “Percent Control” value is 100% at TSSK1B and 88% at CSF1R.
